This is an account of results in article PMC4764201, “High Throughput Screen for Escherichia coli Twin Arginine Translocation (Tat) Inhibitors” (PLoS ONE, 2016).

In test [1] the target is T1, E. coli Tat machinery (IMVs containing overproduced TatABC) (Escherichia coli, UniProt P69423+P69425+P69428). Put plainly: In vitro Tat transport assay of pre-SufI into IMVs, ATP as energy source. The class given is biochemical. The note with it: hit compound 100 μM. The method, then:
(§1) To directly test for inhibition of Tat transport, a gel-based in vitro Tat transport assay was performed using pre-SufI, an authentic Tat precursor protein [7]. In short, this assay consists of incubating a Tat substrate and a Δψ-generating energy source with inverted membrane vesicles (IMVs) containing overproduced TatABC, digesting remaining external protein with a protease, and then analyzing via SDS-PAGE. This assay was run twice using NADH and ATP (if warranted) as energy sources to generate the necessary Δψ. NADH generates a Δψ using respiratory proteins (i.e., the NADH dehydrogenase and cytochrome bo3 ubiquinol oxidase complexes) and ATP generates a Δψ by reversal of ATP synthase. A true Tat inhibitor would survive both assays. In contrast, a respiration inhibitor is expected to reduce Tat transport when only one of the two energy sources is used (except for an ionophore).
(§2) Fig 8 Effect of Hits from the Local HTS on In Vitro Tat Transport. (A) Tat transport assays of pre-SufI using NADH to generate a Δψ. […] Samples were treated with the protease proteinase K, run on SDS-PAGE, and analyzed by in-gel fluorescence imaging. Assays were run in duplicate. Band intensity corresponds to the amount of protein transported into the IMV lumen. The following 7 compounds survived this screen: 1^JS, 51^JS, 55^JS, 111^JS, 181^JS, 202^JS, and 140^JS (boxed in red). (B) Tat transport assays of pre-SufI using ATP to generate a Δψ. All 7 compounds surviving the screen in (A) were tested using a Tat transport assay performed identically to those in (A) except that ATP (1 mM) was used in place of NADH. […]
(§3) Isolation of inverted membrane vesicles (IMVs), Western blot analyses and purification of pre-SufI-IAC were performed as described previously. […] The presence of a Δψ was determined by measuring oxonol VI fluorescence in presence of Tat^+ IMVs (A280 = 0.5), as described previously, except that the translocation buffer lacked BSA. Steady-state fluorescence spectra and fluorescence intensities of whole cells producing mCherry proteins were determined with an SLM-8100 spectrofluorometer.

Test [2] concerns the target T1, E. coli Tat machinery (IMVs containing overproduced TatABC). Put plainly: In vitro Tat transport assay of pre-SufI into IMVs, NADH as energy source. In kind it is biochemical. Conditions: hit compound 100 μM.
Test [3] deals with Pseudomonas aeruginosa Tat machinery. The arrangement: method as in PMID 23006747. Conditions: cited from earlier work.
Test [4] relates to E. coli Tat machinery (IMVs containing overproduced TatABC). Description: In vitro Tat transport assay of pre-SufI into IMVs, NADH as energy source. The class given is biochemical, Escherichia coli. The note with it: out of 22 independent assays by three different people. The method, then: as §1
Fig 8 Effect of Hits from the Local HTS on In Vitro Tat Transport. (A) Tat transport assays of pre-SufI using NADH to generate a Δψ. Inverted membrane vesicles (IMVs; A280 = 5.0), the fluorescent substrate pre-SufI-IAC^Atto565 (90 nM), and NADH (4 mM) were incubated at 37°C for 30 min with DMSO (control) or with hit compound (20 μM). Samples were treated with the protease proteinase K, run on SDS-PAGE, and analyzed by in-gel fluorescence imaging. Assays were run in duplicate. Band intensity corresponds to the amount of protein transported into the IMV lumen. The following 7 compounds survived this screen: 1^JS, 51^JS, 55^JS, 111^JS, 181^JS, 202^JS, and 140^JS (boxed in red). (B) Tat transport assays of pre-SufI using ATP to generate a Δψ. All 7 compounds surviving the screen in (A) were tested using a Tat transport assay performed identically to those in (A) except that ATP (1 mM) was used in place of NADH. Compound 55^JS was eliminated by this assay—the other 6 compounds survived (boxed in red). (C) Chemical structure of compound 55^JS, N-(4,7-Dioxo-4,7-dihydro-2,1,3-benzoxadiazol-5-yl)acetamide.
Isolation of inverted membrane vesicles (IMVs), Western blot analyses and purification of pre-SufI-IAC were performed as described previously. Western blots were performed using rabbit anti-mCherry antibodies (1:10,000 dilution) in the presence of 0.1% Triton X-100 and 0.1% Tween 20. The pre-SufI-IAC protein was labeled with Atto565 maleimide, and the resultant fluorescent protein, pre-SufI-IAC^Atto565, was used as a substrate for the in vitro Tat transport assays (A280 = 5.0), as described previously. The presence of a Δψ was determined by measuring oxonol VI fluorescence in presence of Tat^+ IMVs (A280 = 0.5), as described previously, except that the translocation buffer lacked BSA. Steady-state fluorescence spectra and fluorescence intensities of whole cells producing mCherry proteins were determined with an SLM-8100 spectrofluorometer.
Supplementary file pone.0149659.s003.tiff: S3 Fig IC50's for Hit Compound 181^JS. (A) The total cellular mCherry fluorescence (live cell assay; n = 1), (B) the in vitro NADH-dependent Tat transport efficiency of pre-SufI (n = 1), and (C) the maximum transmembrane electrical potential gradient (n = 1) were measured for a range of concentrations of compound 181^JS (S2E Fig). (D) SDS-PAGE gel showing in-gel fluorescence data used in (B). For (A), cells expressing spTorA-mCherry-SsrA were grown under Tat^++ conditions in a 384-well plate in the presence of 0, 0.08, 0.15, 0.3, 0.63, 1.25, 2.5, 5, 10, 20, or 40 μM compound 181^JS, as described for the HTS assay (see Methods). For (B) and (C), IMVs were incubated with the same concentrations of compound 181^JS prior to initiation of Tat transport and Δψ generation by the addition of NADH, as described previously. The red curves are best-fits using y = d + (100-d)/(1+(x/IC50)^b), where b is a slope factor and d is the high concentration asymptote. (TIFF) Click here for additional data file.

Test [5] has the same test system. Put plainly: In vitro Tat transport assay of pre-SufI into IMVs, ATP as energy source. In kind it is biochemical, Escherichia coli. Conditions: hit compound 100 μM. Here is the method: as §1, §2, §3
The test system is the same in test [6]. Put plainly: In vitro Tat transport assay of pre-SufI into IMVs, NADH as energy source. The class given is biochemical, Escherichia coli. Conditions: hit compound 100 μM.

T1 sequence (P69423 2-258): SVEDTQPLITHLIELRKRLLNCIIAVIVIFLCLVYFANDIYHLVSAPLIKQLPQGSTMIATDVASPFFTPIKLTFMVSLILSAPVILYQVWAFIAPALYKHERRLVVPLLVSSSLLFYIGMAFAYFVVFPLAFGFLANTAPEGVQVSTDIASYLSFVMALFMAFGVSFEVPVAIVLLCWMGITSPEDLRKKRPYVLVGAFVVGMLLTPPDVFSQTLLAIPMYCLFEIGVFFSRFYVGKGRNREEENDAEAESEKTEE
T1 sequence (P69425 whole entry): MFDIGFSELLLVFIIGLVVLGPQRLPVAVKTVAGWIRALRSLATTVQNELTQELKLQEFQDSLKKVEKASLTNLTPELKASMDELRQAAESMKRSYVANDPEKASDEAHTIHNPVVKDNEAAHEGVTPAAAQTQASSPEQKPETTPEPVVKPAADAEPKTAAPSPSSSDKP
T1 sequence (P69428 whole entry): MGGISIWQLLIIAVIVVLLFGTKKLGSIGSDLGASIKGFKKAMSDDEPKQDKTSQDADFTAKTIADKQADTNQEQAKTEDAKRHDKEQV

Take `N#CC1c2ccccc2-n2nncc2CN1Cc1cc(Cl)cc(Cl)c1` (stereo not shown) [21^NIH, 5-[(3,5-dichlorophenyl)methyl]-4,6-dihydrotriazolo[1,5-a][1, 4]benzodiazepine-6-carbonitrile]: the “outcome of ATP-dependent in vitro Tat transport screen (survival = visible inhibition of Tat transport)” value in test [1] is recorded as “survived”. Further, in test [2], the “outcome of NADH-dependent in vitro Tat transport screen (survival = visible inhibition of Tat transport)” value is “survived”.

Consider `Cc1ccc(S(=O)(=O)/C=C/C#N)cc1` [Bay 11–7082], for which the “activity on the Pseudomonas aeruginosa Tat machinery” value in test [3] was “identified as inhibitors”.

Consider `Oc1cc(Cl)ccc1Oc1ccc(Cl)cc1Cl` [Compound 18^NIH, 5-Chloro-2-(2,4-dichlorophenoxy)phenol], for which the “number of assays in which Tat transport was inhibited” value in test [4] is 12 times. In addition, the “outcome of ATP-dependent in vitro Tat transport screen (survival = visible inhibition of Tat transport)” value in test [5] was “survived”. Besides, in test [6], the “outcome of NADH-dependent in vitro Tat transport screen (survival = visible inhibition of Tat transport)” value is reported as “survived”.

For `O=C1C=CC(=O)N1c1ccccc1` [N-phenylmaleimide], the “activity on the Pseudomonas aeruginosa Tat machinery” value in test [3] is given as “identified as inhibitors”.
